Source: US20120178646A1, “HIGH THROUGHPUT METHOD AND SYSTEM FOR IN VIVO SCREENING” (ZF SCREENS B.V., priority 2009, published 2012)

Tested on: Mycobacterium marinum strain E11
Test: Granuloma formation in zebrafish larvae after intrayolk injection with Mycobacterium marinum (COPAS XL fluorescence profiling)
Format: in vivo
Details: zebrafish embryos injected intrayolk at 16- to 256-cell stage, refreshed daily, screened at 5 dpi, confirmed by stereo fluorescence microscopy

Row | SMILES | presence of CherryFP-labeled granulomas in larvae (exposed from 2 dpi to 2 mM in water) | presence of CherryFP-labeled granulomas in larvae (exposed from 2 dpi to 10 μM in 0.5% DMSO)
1 | CC[C@@H](CO)NCCN[C@@H](CC)CO [ethambutol] | did not contain granulomas | 
2 | O=S(=O)(NCCNC/C=C/c1ccc(Br)cc1)c1cccc2cnccc12 [H89] |  | did not contain granulomas
